Test results from patent publication US5240928A, “Substituted quinazolinones as angiotensin II antagonists” (Merck & Co., Inc., priority 1991, dated 1993).

Assay: pKa
Type: physicochemical

Compound: CCCc1nc2ccc(C)cc2c(=O)n1Cc1ccc(-c2ccccc2-c2nn[nH]n2)cc1 [Example 76]
- pKa: 4.7
